Assay results published in article PMC7435928, “Preclinical Evaluation of NHS-Activated Gold Nanoparticles Functionalized with Bombesin or Neurotensin-Like Peptides for Targeting Colon and Prostate Tumours” (Molecules, 2020).
Peptide text beside a SMILES is read from it. * marks the point of attachment. DOTA = O=C(O)CN1CCN(CC(=O)O)CCN(CC(=O)*)CCN(CC(=O)O)CC1

Columns and labels:
[1] = system: human colon carcinoma HT-29 cells; test: MTS reduction test (cytotoxicity); details: free peptides 1–4 nmol/mL, 48 h, triplicate
Experimental: (§4) The MTS reduction test was used to evaluate the number of metabolically active cells in culture, under various experimental conditions.
(§5) Briefly, cells were cultivated in 96-well plates (3 × 10^4 CRL9855 cells/mL, 10 × 10^4 HT-29 cells/mL and 5 × 10^4 DU-145 cells/mL) in a total volume of 100 μL. Adherent cells were left for 24 h to adhere to the culture well. Thereafter, NPs and peptides were added at various concentrations and cells were cultivated for 48 h. Non-treated cells were considered as control (CTRL). For background assessment culture medium, NPs and peptides were cultivated in absence of cells, considering that NPs might interfere with the spectrophotometric measurement. All samples were cultivated in triplicate. At the end of the incubation time, 20 μL of MTS reagent were added and samples were cultivated for another 1–3 h until the reaction color was developed. The OD at 490 nm was measured in each sample using a Tecan Sunrise ELISA reader with Magellan universal reader control and data analysis software (Tecan Group Ltd., Mannedorf, Switzerland). Final OD in cellular samples was calculated by subtracting the OD of the corresponding background samples.

[2] = system: human proliferating CRL9855 monocytes; test: MTS reduction test (cytotoxicity); details: free peptides 1–4 nmol/mL, 48 h, triplicate
Experimental: as §4, §5

[3] = system: human prostate carcinoma DU-145 cells; test: MTS reduction test (cytotoxicity); details: free peptides 1–4 nmol/mL, 48 h, triplicate
Experimental: as §4, §5

[4] = biological target: neurotensin NTRS1, NTRS2 and NTRS3 receptors; parameters: method as in printed for the value; details: target receptors as in Table 3 (NTRS1, NTRS2; SR 14294 also NTRS3); not measured in this paper, ref not given; cited from earlier work
[5] = system: prostate tumour bearing mice; details: 60 min p.i.; cited from earlier work
Experimental: (§1) Several tracers have been developed to target and facilitate the molecular imaging of colon or prostate cancer, such as: ^68Ga-NGR with over 2.7 ± 0.65% ID/g in colon tumour at 30 min p.i., [^18F]FDG with 2.5 ± 0.5% ID/g [^18F]FDG in colon tumours, [^18F]fluorocholine (FCH) with 7.9 ± 5% ID/g at 60 min p.i. in prostate tumour bearing mice. Compared to these, the values obtained for tumour uptake using the four studied nanotracers are between 2.53 ± 0.26% ID/g for ^68Ga-DOTA-NMN-AuNP to 9.82 ± 2.28% ID/g for ^68Ga-DOTA-PEG(4)-BBN(7-14)-AuNP in colon tumours and 2.79 ± 0.4% ...

in vivo [6] = test: in vivo; parameters: species or system mice; details: male, NU/J athymic nude, mouse, 3.81 MBq, total radioactivity, Biodistribution
Experimental: (§2) All experiments were conducted according to the guidelines of EU Directive 2010/63 approved by The Romanian National Sanitary Veterinary and Food Safety Authority (NSVFSA, approval no. 442/25.02.2019). Athymic nude male mice (NU/J, 8–10 weeks old) were obtained from The Jackson Laboratory (Bar Harbor, ME, USA). Animals were housed in ventilated cages with a 12-h light-dark cycle and receive food and water ad libitum. Colon/prostate tumours were induced 7–10 days prior the experiments by a subcutaneous injection of 1 × 10^6 HT-29/DU-145 cancer cells. All injected animals were monitored daily until an ideal size of tumour for biodistribution was reached (60–100 mm^3). 3.81 ± 0.51 MBq of ^68Ga-labelled tracers were retro-orbital injected into the ophthalmic venous sinus after intraperitoneal anesthesia with 0.1 mL ketamine/xylazine/acepromazine cocktail: 7.5 mg/mL ketamine (Narkamon Bio, Bioveta, Cluj-Napoca, Romania), 1.5 mg/mL xylazine (Narcoxyl 2, MSD Animal Health, Madison, NJ, USA) and 0.25 mg/mL acepromazine (Sedam, SC Pasteur Filiala Filipesti SRL, Filipestii de Padure, Romania). All animals were sacrificed at 30 min p.i. and the organs were weighted and measured in a dose calibrator (Biodex Medical Systems Inc., Shirley, NY, USA). The biodistribution was calculated as percent of injected dose per gram of organ (% ID/g) ± standard deviation (SD, n = 4 for each injected tracer).
(§3) All the data were expressed as means ± standard deviation (n = 4). Comparison of results among the groups (% ID/g vs. tracers, % ID/g vs. tracers and organs, % ID/g vs. tracers and tumoral cells), was carried out by one-way analysis of variance (ANOVA) and Tukey post-hoc analysis using SPSS v26 (IBM, Armonk, NY, USA) The results were considered significant for a p-value less than 0.05.

in vivo [7] = test: in vivo; parameters: species or system mice; details: male, NU/J athymic nude, mouse, 3.81 MBq, total radioactivity, Biodistribution; remark: listed apart in the source
Experimental: as §2, §3

[8] = Dynamic light scattering of peptide-functionalized gold nanoparticles; type: physicochemical; details: cold peptide-functionalized AuNPs, 25 °C; for Hydrodynamic Diameter: DLS, Nano ZS, 633 nm, 90°; for Zeta Potential: DLS/zetasizer
Source text: The reaction between DOTA-peptides and NHS-activated PEG-AuNPs was monitored by detecting changes in nanoparticles size as a peptide layer is formed around nanoparticles. The initial hydrodynamic diameter of bare PEG-AuNPs was 42.56 nm, and after functionalization increased to approximately 73 nm (Figure 1). The electric potential at the boundary of the double layer (counter ions and Stern layer) of nanoparticles, also known as zeta potential is higher than −44 mV. Thus, the peptide-functionalized nanoparticles have sufficient repulsive force to anticipate a good physical stability.
The size distribution and zeta potential of cold peptide functionalized-gold nanoparticles were measured using a Nano ZS zetasizer system (Malvern Instruments, Malvern, UK). Measurement parameters were as follows: a laser wavelength of 633 nm (He-Ne), measurement angle of 90°, measurement temperature of 25 °C, and refractive index of medium n = 1.330.

colon tumour = details: in vivo; cited from earlier work
Experimental: as §1

HT-29 colon cancer cells = test: Uptake and retention, rotating radioimmunoassay (LigandTracer Yellow); type: cell-based, human; details: HT-29 cells, 2–3 nmol peptide, real-time signal during incubation
Experimental: The binding kinetic (uptake and retention) of the ^68Ga-labelled peptides and peptide-functionalized gold nanoparticles we investigated using rotating radioimmunoassay. 2–3 nmol of each peptide labelled with ^68Ga was incubated on DU-145 prostate and HT-29 colon cancer cells. After uptake measurement, the radioactive medium was removed and the cells were washed with fresh DMEM-F12 medium. The cell retention is measured after this process, during each rotation of the Petri dish support the detector is measuring only the signal coming from the tracers bound to cells. The results are reported as measured signal during the time of analysis (where t = 0 min is the time of incubation), as illustrated in Figure 3. […]
The retention level is illustrated after the indicator arrows and reflects the percent of activity retained by the cells from the maximum counted during uptake, after hot medium removal and cells washing step. […]
Cells were maintained in culture according to the protocol provided by the depositor. […] Cells at passage 6–9 and were counted before seeding for experimentation by optical microscopy using a Burker-Turk counting chamber, and cell viability was assessed by the trypan blue exclusion test. […]

With `CSCC[C@H](NC(=O)[C@H](Cc1ccccc1)NC(=O)[C@H](Cc1c[nH]cn1)NC(=O)CNC(=O)[C@@H](NC(=O)[C@H](C)NC(=O)[C@H](Cc1c[nH]c2ccccc12)NC(=O)[C@H](CC(C)C)NC(=O)[C@H](CC(N)=O)NC(=O)CNC(=O)CN1CCN(CC(=O)O)CCN(CC(=O)O)CCN(CC(=O)O)CC1)[C@@H](C)O)C(N)=O` [DOTA-NMB] the “Effect on MTS reduction” value [1] was “do not alter MTS reduction”, the “Effect on MTS reduction” value [2] was “do not alter MTS reduction” and the “Effect on MTS reduction” value [3] was “do not alter MTS reduction”.
For `Cc1ccc(S(=O)(=O)Nc2ccc3c(c2)c(C(=O)C(F)(F)F)cn3CC(=O)N[C@@H](CC(C)C)C(=O)O)cc1` [NTRC 824], the Kd [4] is given as 0.038 µM.
In the case of `COc1cccc(OC)c1-c1cc(C(=O)NC2(C(=O)O)C3CC4CC(C3)CC2C4)nn1-c1ccc(C(=O)N(C)CCCN(C)C)cc1C(C)C` (centres unmarked) [SR 14294], the Kd [4] is listed as 0.01 µM.
In the case of `COc1cccc(OC)c1-c1cc(C(=O)NC2(C(=O)O)C3CC4CC(C3)CC2C4)nn1-c1ccnc2cc(Cl)ccc12` (centres unmarked) [SR 48692], the Kd [4] is listed as 0.015 µM.
In the case of `C[N+](C)(CF)CCO` [[^18F]fluorocholine (FCH), [^18F]fluorocholine], the Tumour uptake [5] is listed as 7.9 ± 5 % ID/g.
In the case of `CSCC[C@H](NC(=O)[C@H](Cc1ccccc1)NC(=O)[C@H](Cc1c[nH]cn1)NC(=O)CNC(=O)[C@@H](NC(=O)[C@H](C)NC(=O)[C@H](Cc1c[nH]c2ccccc12)NC(=O)[C@H](CC(C)C)NC(=O)[C@H](CC(N)=O)NC(=O)CNC(=O)CN1CCN(CC(=O)O)CCN(CC(=O)O)CCN(CC(=O)O)CC1)[C@@H](C)O)C(N)=O` [^68Ga-DOTA-NMB, metal not drawn], the tissue uptake at 0.5 h (in vivo [6]; Pancreas) is reported as 1.36 ± 0.07 %ID/g, the tissue uptake at 0.5 h (in vivo [6]; Tumour (prostate)) is reported as 2.54 ± 0.42 %ID/g and the tissue uptake at 0.5 h (in vivo [7]; Bone) is reported as 0.1 ± 0.07 %ID/g. The tissue uptake at 0.5 h (in vivo [7]; Tumour (colon)) was 1.73 ± 0.08 %ID/g.
In the case of `CC[C@H](C)[C@H](NC(=O)[C@H](Cc1ccc(O)cc1)NC(=O)[C@@H]1CCCN1C(=O)[C@@H](NC(=O)[C@H](CCCCN)NC(=O)CN1CCN(CC(=O)O)CCN(CC(=O)O)CCN(CC(=O)O)CC1)[C@@H](C)CC)C(=O)N[C@@H](CC(C)C)C(=O)O` [^68Ga-DOTA-NMN, metal not drawn] ({DOTA}-KIPYIL-OH; C-terminus assumed), the tissue uptake at 0.5 h (in vivo [6]; Heart) is reported as 0.99 ± 0.26 %ID/g, the tissue uptake at 0.5 h (in vivo [6]; Kidneys) is reported as ~60 %ID/g and the tissue uptake at 0.5 h (in vivo [6]; Lungs) is reported as 2.37 ± 0.5 %ID/g. The tissue uptake at 0.5 h (in vivo [6]; Pancreas) was 0.58 ± 0.02 %ID/g, the tissue uptake at 0.5 h (in vivo [6]; Tumour (prostate)) was 1.77 ± 0.5 %ID/g and the tissue uptake at 0.5 h (in vivo [7]; Bone) was 0.16 ± 0.02 %ID/g. It also gave a tissue uptake at 0.5 h (in vivo [7]; Brain) of 0.04 ± 0.01 %ID/g, a tissue uptake at 0.5 h (in vivo [7]; Heart) of 1 ± 0.42 %ID/g and a tissue uptake at 0.5 h (in vivo [7]; Kidneys) of 21.1 ± 1.97 %ID/g. For the same compound, the tissue uptake at 0.5 h (in vivo [7]; Lungs) was 2.37 ± 0.77 %ID/g, the tissue uptake at 0.5 h (in vivo [7]; Lymph Node) was 0.39 ± 0.05 %ID/g and the tissue uptake at 0.5 h (in vivo [7]; Spleen) was 0.35 ± 0.02 %ID/g. It also gave a tissue uptake at 0.5 h (in vivo [7]; Tumour (colon)) of 2.02 ± 0.02 %ID/g.
Compound `CSCC[C@H](NC(=O)[C@H](CC(C)C)NC(=O)[C@H](Cc1c[nH]cn1)NC(=O)CNC(=O)[C@@H](NC(=O)[C@H](C)NC(=O)[C@H](Cc1c[nH]c2ccccc12)NC(=O)[C@H](CCC(N)=O)NC(=O)CCOCCOCCOCCOCCNC(=O)CN1CCN(CC(=O)O)CCN(CC(=O)O)CCN(CC(=O)O)CC1)C(C)C)C(N)=O` [^68Ga-DOTA-PEG(4)-BBN(7-14), metal not drawn] has a tissue uptake at 0.5 h (in vivo [6]; Blood) of 6.48 ± 1.53 %ID/g, a tissue uptake at 0.5 h (in vivo [6]; Kidneys) of 18 ± 3.78 %ID/g and a tissue uptake at 0.5 h (in vivo [6]; Tumour (prostate)) of 3.78 ± 0.27 %ID/g. For the same compound, the tissue uptake at 0.5 h (in vivo [7]; Blood) was 6.42 ± 0.27 %ID/g, the tissue uptake at 0.5 h (in vivo [7]; Bone) was 0.75 ± 0.06 %ID/g and the tissue uptake at 0.5 h (in vivo [7]; Kidneys) was 18.7 ± 0.67 %ID/g. It also gave a tissue uptake at 0.5 h (in vivo [7]; Lymph Node) of 1.1 ± 0.45 %ID/g and a tissue uptake at 0.5 h (in vivo [7]; Tumour (colon)) of 3.31 ± 0.76 %ID/g.
With “DOTA-NMB-AuNP: cold DOTA-neuromedin B-functionalized gold nanoparticles” the “Hydrodynamic Diameter” value [8] was 72.18 nm and the “Zeta Potential” value [8] was −47.3 mV.
With “DOTA-NMN-AuNP: cold DOTA-neuromedin N-functionalized gold nanoparticles” the “Hydrodynamic Diameter” value [8] was 73.29 nm and the “Zeta Potential” value [8] was −49.6 mV.
In the case of “DOTA-NT-AuNP: cold DOTA-neurotensin-functionalized gold nanoparticles”, the “Hydrodynamic Diameter” value [8] is reported as 72.36 nm and the “Zeta Potential” value [8] is reported as −44.4 mV.
For [^18F]FDG, the Tumour uptake (colon tumour) is listed as 2.5 ± 0.5 % ID/g.
For “^68Ga-DOTA-NMB-AuNP: NHS-activated PEG-gold nanoparticles functionalized with ^68Ga-DOTA-Neuromedin B”, the Uptake profile (HT-29 colon cancer cells) was “up and down trend”.
In the case of “^68Ga-DOTA-NT-AuNP: NHS-activated PEG-gold nanoparticles functionalized with ^68Ga-DOTA-NT”, the “Hydrodynamic Diameter” value [8] is reported as 72.36 nm.
